Experiments:
[1] = biological target: Serine/threonine-protein kinase Chk1 (Homo sapiens) (UniProt O14757); details: Compound concentration 1000.0 nM
[2] = biological target: Myosin-IIIb (Homo sapiens) (UniProt Q8WXR4); details: Compound concentration 1000.0 nM
[3] = biological target: Activin receptor type-1B (Homo sapiens) (UniProt P36896); details: Compound concentration 1000.0 nM
[4] = biological target: Inhibitor of nuclear factor kappa-B kinase subunit epsilon (Homo sapiens) (UniProt Q14164); details: Compound concentration 1000.0 nM
Inhibitor of nuclear factor kappa-B kinase subunit epsilon (Homo sapiens), sequence (Q14164 whole entry): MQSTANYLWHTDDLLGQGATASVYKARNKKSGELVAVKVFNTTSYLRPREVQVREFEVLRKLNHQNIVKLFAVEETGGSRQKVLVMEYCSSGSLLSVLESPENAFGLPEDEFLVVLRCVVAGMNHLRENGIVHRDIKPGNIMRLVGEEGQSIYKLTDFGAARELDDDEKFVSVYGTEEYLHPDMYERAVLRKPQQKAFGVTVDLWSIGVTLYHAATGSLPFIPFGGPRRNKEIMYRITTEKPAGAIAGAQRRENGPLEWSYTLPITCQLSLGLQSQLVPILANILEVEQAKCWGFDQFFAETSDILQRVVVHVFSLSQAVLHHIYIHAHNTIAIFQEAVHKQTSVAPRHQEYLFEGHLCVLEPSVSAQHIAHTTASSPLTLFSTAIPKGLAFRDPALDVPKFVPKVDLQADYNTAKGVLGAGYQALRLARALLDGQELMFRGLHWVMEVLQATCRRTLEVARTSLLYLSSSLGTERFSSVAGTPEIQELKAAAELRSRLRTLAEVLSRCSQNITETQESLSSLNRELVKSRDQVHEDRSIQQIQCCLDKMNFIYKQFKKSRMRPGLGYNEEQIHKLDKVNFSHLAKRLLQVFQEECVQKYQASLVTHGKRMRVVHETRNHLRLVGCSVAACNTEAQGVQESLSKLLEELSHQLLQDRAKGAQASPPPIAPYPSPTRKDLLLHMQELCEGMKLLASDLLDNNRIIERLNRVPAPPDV

[5] = biological target: Alpha-2C adrenergic receptor (Homo sapiens) (UniProt P18825); details: Compound concentration 10.0 uM
Alpha-2C adrenergic receptor (Homo sapiens), sequence (P18825 whole entry): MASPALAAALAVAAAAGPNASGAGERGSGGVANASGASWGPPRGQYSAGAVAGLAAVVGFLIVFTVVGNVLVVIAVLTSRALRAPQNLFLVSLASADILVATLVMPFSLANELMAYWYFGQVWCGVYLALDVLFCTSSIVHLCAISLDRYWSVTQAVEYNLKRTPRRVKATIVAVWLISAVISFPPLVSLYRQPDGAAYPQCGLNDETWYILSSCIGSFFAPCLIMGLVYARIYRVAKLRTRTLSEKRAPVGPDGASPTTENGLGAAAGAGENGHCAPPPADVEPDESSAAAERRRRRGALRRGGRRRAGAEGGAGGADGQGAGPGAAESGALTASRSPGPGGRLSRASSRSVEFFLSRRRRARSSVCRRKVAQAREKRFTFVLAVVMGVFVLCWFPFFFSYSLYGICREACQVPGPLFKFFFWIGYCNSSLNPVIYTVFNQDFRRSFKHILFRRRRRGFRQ

[6] = biological target: Calcium/calmodulin-dependent protein kinase type II subunit delta (Homo sapiens) (UniProt Q13557); details: Compound concentration 1000.0 nM
Calcium/calmodulin-dependent protein kinase type II subunit delta (Homo sapiens), sequence (Q13557 whole entry): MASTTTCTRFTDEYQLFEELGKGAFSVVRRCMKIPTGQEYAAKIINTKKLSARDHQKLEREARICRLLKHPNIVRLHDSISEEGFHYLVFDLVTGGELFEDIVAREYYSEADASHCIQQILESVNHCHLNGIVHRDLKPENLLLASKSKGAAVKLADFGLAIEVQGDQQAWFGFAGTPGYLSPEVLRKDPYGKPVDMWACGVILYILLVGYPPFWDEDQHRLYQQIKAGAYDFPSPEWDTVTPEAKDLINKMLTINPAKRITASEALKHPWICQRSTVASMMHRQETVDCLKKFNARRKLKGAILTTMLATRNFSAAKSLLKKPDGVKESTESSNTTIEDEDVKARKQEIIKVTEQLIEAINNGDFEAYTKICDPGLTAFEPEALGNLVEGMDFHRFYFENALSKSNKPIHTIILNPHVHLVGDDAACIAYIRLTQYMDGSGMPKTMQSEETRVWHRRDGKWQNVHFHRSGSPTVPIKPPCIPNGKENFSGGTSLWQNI

[7] = biological target: Phosphatidylinositol 4-phosphate 5-kinase type-1 alpha (Homo sapiens) (UniProt Q99755); details: Compound concentration 1000.0 nM
Phosphatidylinositol 4-phosphate 5-kinase type-1 alpha (Homo sapiens), sequence (Q99755 whole entry, canonical isoform): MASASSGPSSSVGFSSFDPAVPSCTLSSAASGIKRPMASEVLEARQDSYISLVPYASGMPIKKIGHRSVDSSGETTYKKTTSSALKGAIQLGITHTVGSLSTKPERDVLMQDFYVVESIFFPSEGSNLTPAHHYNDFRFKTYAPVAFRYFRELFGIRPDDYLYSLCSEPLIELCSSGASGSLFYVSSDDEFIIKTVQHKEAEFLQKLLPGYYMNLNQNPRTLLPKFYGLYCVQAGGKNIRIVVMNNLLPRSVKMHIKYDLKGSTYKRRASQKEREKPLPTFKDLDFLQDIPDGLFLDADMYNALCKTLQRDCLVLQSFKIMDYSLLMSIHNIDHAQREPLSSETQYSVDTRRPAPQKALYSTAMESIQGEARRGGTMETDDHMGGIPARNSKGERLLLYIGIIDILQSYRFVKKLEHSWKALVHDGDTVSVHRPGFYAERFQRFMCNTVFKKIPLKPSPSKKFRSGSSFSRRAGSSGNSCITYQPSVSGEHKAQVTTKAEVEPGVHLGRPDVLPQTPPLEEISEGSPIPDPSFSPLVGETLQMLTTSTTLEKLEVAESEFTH

[8] = biological target: Phosphorylase b kinase regulatory subunit alpha, liver isoform (Homo sapiens) (UniProt P46019); details: Compound concentration 1000.0 nM

Activin receptor type-1B (Homo sapiens), sequence (P36896 whole entry): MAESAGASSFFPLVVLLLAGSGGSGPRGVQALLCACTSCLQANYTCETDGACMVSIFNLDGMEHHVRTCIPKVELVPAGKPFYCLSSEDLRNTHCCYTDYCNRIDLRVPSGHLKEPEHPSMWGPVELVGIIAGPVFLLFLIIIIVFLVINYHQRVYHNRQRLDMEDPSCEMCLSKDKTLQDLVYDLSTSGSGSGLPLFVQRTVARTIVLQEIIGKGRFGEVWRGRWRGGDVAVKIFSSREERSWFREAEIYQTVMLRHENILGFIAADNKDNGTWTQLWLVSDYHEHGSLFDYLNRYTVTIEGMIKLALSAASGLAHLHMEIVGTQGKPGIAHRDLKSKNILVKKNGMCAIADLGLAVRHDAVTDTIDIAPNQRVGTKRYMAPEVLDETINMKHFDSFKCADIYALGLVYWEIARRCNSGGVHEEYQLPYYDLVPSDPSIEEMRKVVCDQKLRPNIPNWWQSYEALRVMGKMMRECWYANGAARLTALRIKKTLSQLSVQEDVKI
Serine/threonine-protein kinase Chk1 (Homo sapiens), sequence (O14757 whole entry): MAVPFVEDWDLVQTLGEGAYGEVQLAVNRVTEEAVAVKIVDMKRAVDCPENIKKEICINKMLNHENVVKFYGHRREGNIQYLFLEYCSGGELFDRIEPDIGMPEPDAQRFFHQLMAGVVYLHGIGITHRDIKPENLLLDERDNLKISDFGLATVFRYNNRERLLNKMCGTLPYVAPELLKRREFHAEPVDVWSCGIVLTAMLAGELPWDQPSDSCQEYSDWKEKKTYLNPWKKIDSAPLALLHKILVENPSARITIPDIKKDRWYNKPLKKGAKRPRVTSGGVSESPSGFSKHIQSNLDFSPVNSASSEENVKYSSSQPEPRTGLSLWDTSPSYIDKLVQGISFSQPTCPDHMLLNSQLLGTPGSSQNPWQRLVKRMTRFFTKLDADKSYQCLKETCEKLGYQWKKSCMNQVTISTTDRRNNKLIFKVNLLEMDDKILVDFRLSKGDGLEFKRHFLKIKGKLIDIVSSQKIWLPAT
Myosin-IIIb (Homo sapiens), sequence (Q8WXR4 whole entry): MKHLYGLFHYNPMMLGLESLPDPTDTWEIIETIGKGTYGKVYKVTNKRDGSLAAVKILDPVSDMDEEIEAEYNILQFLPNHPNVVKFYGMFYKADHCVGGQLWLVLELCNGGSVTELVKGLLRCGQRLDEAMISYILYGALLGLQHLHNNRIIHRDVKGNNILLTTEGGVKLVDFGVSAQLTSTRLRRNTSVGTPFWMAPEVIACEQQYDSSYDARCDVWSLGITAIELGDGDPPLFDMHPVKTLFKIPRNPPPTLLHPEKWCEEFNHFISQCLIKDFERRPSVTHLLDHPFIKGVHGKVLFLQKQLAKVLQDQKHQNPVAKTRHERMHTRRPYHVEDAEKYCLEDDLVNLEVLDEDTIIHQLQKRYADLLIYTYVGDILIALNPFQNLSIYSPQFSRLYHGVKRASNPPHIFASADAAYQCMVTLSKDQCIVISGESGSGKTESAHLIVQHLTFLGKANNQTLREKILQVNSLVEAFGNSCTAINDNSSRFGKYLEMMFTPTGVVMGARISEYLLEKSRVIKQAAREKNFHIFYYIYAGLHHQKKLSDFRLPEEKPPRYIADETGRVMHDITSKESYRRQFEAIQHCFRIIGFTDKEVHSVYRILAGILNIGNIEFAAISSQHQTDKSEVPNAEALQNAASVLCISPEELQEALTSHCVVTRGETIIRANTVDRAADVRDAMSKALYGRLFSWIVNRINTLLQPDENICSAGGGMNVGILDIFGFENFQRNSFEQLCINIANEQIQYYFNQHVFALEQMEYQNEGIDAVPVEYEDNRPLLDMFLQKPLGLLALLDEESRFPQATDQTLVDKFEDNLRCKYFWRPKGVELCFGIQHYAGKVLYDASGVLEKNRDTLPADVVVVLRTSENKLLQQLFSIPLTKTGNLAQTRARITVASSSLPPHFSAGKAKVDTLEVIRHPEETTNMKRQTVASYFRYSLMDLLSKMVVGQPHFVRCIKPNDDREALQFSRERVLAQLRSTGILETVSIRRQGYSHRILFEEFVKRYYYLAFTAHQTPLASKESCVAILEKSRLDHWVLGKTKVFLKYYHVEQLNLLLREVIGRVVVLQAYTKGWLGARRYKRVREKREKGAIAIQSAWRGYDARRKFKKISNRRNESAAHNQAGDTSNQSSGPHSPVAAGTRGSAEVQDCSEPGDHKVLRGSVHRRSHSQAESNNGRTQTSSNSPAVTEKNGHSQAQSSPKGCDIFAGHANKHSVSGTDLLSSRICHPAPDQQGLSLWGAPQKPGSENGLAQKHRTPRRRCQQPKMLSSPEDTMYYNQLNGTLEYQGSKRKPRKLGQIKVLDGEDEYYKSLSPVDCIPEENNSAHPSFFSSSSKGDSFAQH

COc1cccc(CNC(=O)c2nc3scc(COCc4ccc(C(=O)O)cc4)c3c(=O)[nH]2)c1 [T-26c]
inactive: residual activity [1] 95.5% | residual activity [2] 100% | residual activity [3] 89.4% | residual activity [4] 83.9% | inhibition [5] 4.23% | residual activity [6] 100% | residual activity [7] 100% | residual activity [8] 83.8%

Reference: ChEMBL document CHEMBL4507300 (2021)
